Experimental data as given in patent publication US10550105B2 (Ribon Therapeutics Inc., priority 2018, dated 2020).

target: PARP7 (Homo sapiens (Human), UniProt Q7Z3E1); test: Enzymatic assay for inhibition of PARP7: TR-FRET displacement of biotinylated Probe A from the TIPARP active site; assay type: binding; details: Table A-1
Protocol: 20 nL of a dose response curve of each test compound was spotted in black 384-well polystyrene proxiplates (Perkin Elmer) using a Mosquito (TTP Labtech). […] Reactions were incubated at 25° C. for an additional 30 min, then read on an Envision platereader equipped with a LANCE/DELFIA top mirror (Perkin Elmer) using excitation of 320 nm and emission of 615 nm and […] with a 90 μs delay. The ratio of the 665/615 nm emission were calculated for each well to determine the amount of complex of TIPARP and Probe A in each well. […] The Hill Coefficient is normally allowed to float but may also be fixed at 1 in a 3-parameter fit. Y is the % inhibition and x is the compound concentration.

Sequence of PARP7 (Q7Z3E1 whole entry): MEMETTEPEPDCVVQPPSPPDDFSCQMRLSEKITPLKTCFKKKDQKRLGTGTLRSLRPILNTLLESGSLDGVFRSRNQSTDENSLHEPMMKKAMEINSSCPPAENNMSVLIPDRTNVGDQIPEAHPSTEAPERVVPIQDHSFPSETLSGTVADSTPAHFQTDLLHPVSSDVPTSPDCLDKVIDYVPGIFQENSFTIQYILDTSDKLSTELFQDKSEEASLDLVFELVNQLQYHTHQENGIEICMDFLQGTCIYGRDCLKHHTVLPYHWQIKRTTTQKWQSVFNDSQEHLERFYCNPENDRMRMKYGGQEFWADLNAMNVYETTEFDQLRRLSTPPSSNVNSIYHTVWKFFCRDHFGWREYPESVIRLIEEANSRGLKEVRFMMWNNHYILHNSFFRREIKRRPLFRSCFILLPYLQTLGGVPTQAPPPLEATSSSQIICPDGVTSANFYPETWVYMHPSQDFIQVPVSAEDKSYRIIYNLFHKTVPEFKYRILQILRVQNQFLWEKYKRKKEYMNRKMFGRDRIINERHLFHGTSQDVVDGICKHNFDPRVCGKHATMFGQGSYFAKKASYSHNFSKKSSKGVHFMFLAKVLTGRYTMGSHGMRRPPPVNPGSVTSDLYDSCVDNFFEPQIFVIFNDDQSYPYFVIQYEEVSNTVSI

IC50 [nM] | Compound
≥ 1000 | N#Cc1cnc(N2CCN(C(=O)c3cc(OC[C@H]4c5ccccc5CN4c4cn[nH]c(=O)c4C(F)(F)F)ccn3)CC2)nc1 (single isomer, unassigned) [Example 64 Isomer A]
< 100 | N#Cc1cnc(N2CCN(C(=O)c3cc(OC[C@@H]4c5ccccc5CN4c4cn[nH]c(=O)c4C(F)(F)F)ccn3)CC2)nc1 (single isomer, unassigned) [Example 64 Isomer B]
< 100 | N#Cc1ccc(N2CCN(C(=O)c3cncc(OC[C@@H]4c5ccccc5CN4c4cn[nH]c(=O)c4C(F)(F)F)n3)CC2)nc1 (single isomer, unassigned) [Example 72 Isomer A]
100 to 1000 | N#Cc1ccc(N2CCN(C(=O)CCOC[C@H]3c4ccccc4CN3c3cn[nH]c(=O)c3C(F)(F)F)CC2)nc1 (single isomer, unassigned) [Example 93 Isomer B]
< 100 | C[C@H](COC[C@@H]1CCCN1c1cn[nH]c(=O)c1C(F)(F)F)C(=O)N1CCN(c2ccc(C#N)cn2)CC1 (single isomer, unassigned) [Example 94 Isomer A]
< 100 | C[C@@H](COC[C@@H]1CCCN1c1cn[nH]c(=O)c1C(F)(F)F)C(=O)N1CCN(c2ccc(C#N)cn2)CC1 (single isomer, unassigned) [Example 94 Isomer B]
< 100 | N#Cc1ccc(N2CCN(C(=O)C/C=C\OC[C@@H]3CCCN3c3cn[nH]c(=O)c3C(F)(F)F)CC2)nc1 (single isomer, unassigned) [Example 96 Isomer A]
< 100 | N#Cc1ccc(N2CCN(C(=O)/C=C/COC[C@@H]3CCCN3c3cn[nH]c(=O)c3C(F)(F)F)CC2)nc1 (single isomer, unassigned) [Example 96 Isomer B]
100 to 1000 | O=C(C[C@@H]1CC[C@H]([C@@H]2CCCN2c2cn[nH]c(=O)c2C(F)(F)F)O1)N1CCN(c2ncc(Cl)cn2)CC1 (single isomer, unassigned) [Example 147C]
< 100 | O=c1[nH]ncc(N2Cc3cccc(OC[C@@H]4CCCO4)c3C2)c1C(F)(F)F (single isomer, unassigned) [Example 222]
≥ 1000 | COC[C@H](COCCC(=O)N1CCN(c2ccc(C#N)cn2)CC1)Nc1cn[nH]c(=O)c1C(F)(F)F (single isomer, unassigned) [Example 518A]
< 100 | COC[C@@H](COCCC(=O)N1CCN(c2ccc(C#N)cn2)CC1)Nc1cn[nH]c(=O)c1C(F)(F)F (single isomer, unassigned) [Example 518B]
< 100 | COC[C@@H](COCCC(=O)N1CCN(c2ccc(C#N)cn2)CC1)Oc1cn[nH]c(=O)c1C(F)(F)F (single isomer, unassigned) [Example 532 Isomer A]
100 to 1000 | COC[C@H](COCCC(=O)N1CCN(c2ccc(C#N)cn2)CC1)Oc1cn[nH]c(=O)c1C(F)(F)F (single isomer, unassigned) [Example 532 Isomer B]
< 100 | N#Cc1ccc(N2CCN(C(=O)CCO[C@@H]3Cc4ccccc4[C@H]3Nc3cn[nH]c(=O)c3C(F)(F)F)CC2)nc1 (single isomer, unassigned) [Example 537 Isomer B]
100 to 1000 | C[C@H](CC(=O)N1CCN(c2ccc(C#N)cn2)CC1)OCCOc1cn[nH]c(=O)c1C(F)(F)F (single isomer, unassigned) [Example 538 Isomer A]
< 100 | C[C@@H](CC(=O)N1CCN(c2ccc(C#N)cn2)CC1)OCCOc1cn[nH]c(=O)c1C(F)(F)F (single isomer, unassigned) [Example 538 Isomer B]
< 100 | C[C@@H](COCCC(=O)N1CCN(c2ccc(Cl)cn2)CC1)Oc1cn[nH]c(=O)c1C(F)(F)F (single isomer, unassigned) [Example 539 Isomer A]

IC50 [nM] | Compound
100 to 1000 | C[C@@H](COc1cn[nH]c(=O)c1C(F)(F)F)OCCC(=O)N1CCN(c2ccc(Cl)cn2)CC1 (single isomer, unassigned) [Example 539 Isomer B]
< 100 | C[C@H](COc1cn[nH]c(=O)c1C(F)(F)F)OCCC(=O)N1CCN(c2ccc(Cl)cn2)CC1 (single isomer, unassigned) [Example 539 Isomer C]
100 to 1000 | C[C@H](COCCC(=O)N1CCN(c2ccc(Cl)cn2)CC1)Oc1cn[nH]c(=O)c1C(F)(F)F (single isomer, unassigned) [Example 539 Isomer D]
< 100 | C[C@@H](COCCC(=O)N1CCN(c2ncc(Cl)cn2)CC1)Oc1cn[nH]c(=O)c1C(F)(F)F (single isomer, unassigned) [Example 543 Isomer A]
< 100 | C[C@@H](COc1cn[nH]c(=O)c1C(F)(F)F)OCCC(=O)N1CCN(c2ncc(Cl)cn2)CC1 (single isomer, unassigned) [Example 543 Isomer B]
< 100 | C[C@H](COc1cn[nH]c(=O)c1C(F)(F)F)OCCC(=O)N1CCN(c2ncc(Cl)cn2)CC1 (single isomer, unassigned) [Example 543 Isomer C]
< 100 | C[C@@H](COCCC(=O)N1CCN(c2ncc(C(F)(F)F)cn2)CC1)Oc1cn[nH]c(=O)c1C(F)(F)F (single isomer, unassigned) [Example 544 Isomer A]
100 to 1000 | C[C@H](COCCC(=O)N1CCN(c2ncc(C(F)(F)F)cn2)CC1)Oc1cn[nH]c(=O)c1C(F)(F)F (single isomer, unassigned) [Example 544 Isomer B]
< 100 | C[C@@H](COc1cn[nH]c(=O)c1C(F)(F)F)OCCC(=O)N1CCN(c2ncc(C(F)(F)F)cn2)CC1 (single isomer, unassigned) [Example 544 Isomer C]
100 to 1000 | C[C@H](COc1cn[nH]c(=O)c1C(F)(F)F)OCCC(=O)N1CCN(c2ncc(C(F)(F)F)cn2)CC1 (single isomer, unassigned) [Example 544 Isomer D]
100 to 1000 | O=C(C[C@@H]1CC[C@@H](COc2cn[nH]c(=O)c2C(F)(F)F)O1)N1CCN(c2ccc(C(F)(F)F)cn2)CC1 (single isomer, unassigned) [Example 545 Isomer A]
100 to 1000 | O=C(C[C@H]1CC[C@@H](COc2cn[nH]c(=O)c2C(F)(F)F)O1)N1CCN(c2ccc(C(F)(F)F)cn2)CC1 (single isomer, unassigned) [Example 545 Isomer B]
< 100 | O=C(C[C@H]1CC[C@H](COc2cn[nH]c(=O)c2C(F)(F)F)O1)N1CCN(c2ccc(C(F)(F)F)cn2)CC1 (single isomer, unassigned) [Example 545 Isomer C]
< 100 | O=C(C[C@@H]1CC[C@H](COc2cn[nH]c(=O)c2C(F)(F)F)O1)N1CCN(c2ccc(C(F)(F)F)cn2)CC1 (single isomer, unassigned) [Example 545 Isomer D]
< 100 | O=C(C[C@@H]1CC[C@@H](CNc2cn[nH]c(=O)c2C(F)(F)F)O1)N1CCN(c2ccc(C(F)(F)F)cn2)CC1 (single isomer, unassigned) [Example 546 Isomer A]
< 100 | O=C(C[C@H]1CC[C@H](CNc2cn[nH]c(=O)c2C(F)(F)F)O1)N1CCN(c2ccc(C(F)(F)F)cn2)CC1 (single isomer, unassigned) [Example 546 Isomer B]
< 100 | O=C(C[C@H]1CC[C@@H](CNc2cn[nH]c(=O)c2C(F)(F)F)O1)N1CCN(c2ccc(C(F)(F)F)cn2)CC1 (single isomer, unassigned) [Example 546 Isomer C]
< 100 | O=C(C[C@@H]1CC[C@H](CNc2cn[nH]c(=O)c2C(F)(F)F)O1)N1CCN(c2ccc(C(F)(F)F)cn2)CC1 (single isomer, unassigned) [Example 546 Isomer D]
